Experimental data: BindingDB's records for doi:10.7270/Q2X34VZF (Burnham Center For Chemical Genomics, 2011)

Molecular target: Phospholipase A2 (Homo sapiens, UniProt P04054)
Assay: PLA2 enzyme inhibitors, dose response, counter-screen for ATG4B inhibitor project, biochemical, set 2 (AID 588586)

Phospholipase A2, sequence (P04054 whole entry): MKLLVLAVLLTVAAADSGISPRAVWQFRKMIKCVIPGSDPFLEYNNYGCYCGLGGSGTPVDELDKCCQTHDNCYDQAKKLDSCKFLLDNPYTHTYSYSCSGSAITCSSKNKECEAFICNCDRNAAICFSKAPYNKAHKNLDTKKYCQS

SMILES	IC50 [µM]
Oc1ccc2ccccc2c1CN=Nc1nnc(-c2ncc[nH]2)c2ccccc12 [SMR000151639]	2.47
Cc1ccc(NC2=NC(=O)C(=Cc3c(C)[nH]c4ccccc34)S2)cc1 [5-[(2-methyl-1H-indol-3-yl)methylene]-2-[(4-methylphenyl)imino]-1,3-thiazolidin-4-one]	22.3
CC1=CC(/C=N/n2c(COc3ccccc3)nc3ccccc3c2=O)C(=O)C([N+](=O)[O-])=C1 (stereo not drawn) [3-[[(E)-(3-methyl-5-nitro-6-oxocyclohexa-2,4-dien-1-ylidene)methyl]amino]-2-(phenoxymethyl)quinazolin-4-one]	10.5
